From patent US8754233B2, “Pyrazolylbenzothiazole derivatives and their use as therapeutic agents” (Dermira (Canada), Inc., priority 2002, dated 2014) come the findings set out here.

A value given as a limit tells only on which side of the number the result lay.

Holding throughout (format): cell-based, mouse
One assay deals with macrophages. Description: Survival of macrophages. The note with it: stimulated primary macrophages.
Assay [1] relates to IFNg on ConA 1° splenocytes. Description: Inhibition of IFNγ release from ConA-stimulated splenocytes. Particulars: ConA-stimulated Balb/c splenocytes, 18-24 hours, ELISA. How it is done:
T-lymphocytes obtained from mice spleens are a suitable sample for studying the activation properties of this immunologically important cell type. T-lymphocytes are the main regulators for inflammation. Concanavalin A (ConA) is an effective activator of T-lymphocytes, which allows T-lymphocytes to proliferate and produce inflammatory cytokines, such as Interferon (IFNγ) and regulatory cytokines, such as Interleukin 10 (IL-10).
The spleens were transferred onto mesh screen containing 10 ml of ice cold RPMI-5 (1× sodium pyruvate and 5% FBS) and gently ground with a pestle. The cell suspensions were centrifuged at 1500 rpm for 6 minutes at 4° C. […] The supernatant was discarded and the pellet washed two additional times. The cells were resuspended in RPMI-5 and the cell suspensions combined. The cells were counted and their concentration was adjusted to 2.8×10^6 cells/ml using RPMI-5.
The working concentration of ConA was […]. A 20× working concentration of Concanavalin A was […] was prepared using RPMI-5. The test compounds, dimethylsulfoxide (DMSO) negative vehicle control and staurosporine positive control were diluted twenty times using RPMI-5. Ten μL each of DMSO and staurosporine were combined with 180 μl of medium containing splenocytes in the wells, and 10 μl of 50 μg/ml ConA was immediately added. Medium without ConA was added to the control wells. […] The plates were incubated at 37° C. in 5% CO2 in humidified conditions overnight (18-24 hours) for INFγ.
At the completion of the stimulation described above, the plates were spun at 2000 rpm for 10 minutes. The supernatants (100 μl) from each well were transferred to fresh plates for INFγ analysis by ELISA.
INFγ levels in the supernatants from stimulated lymphocytes were determined with PharMingen's OptEIA™ INFγ Kit (PharMingen) according to manufacturer's directions. The data, shown in Table 2 infra, is represented as a percentage of INFγ inhibition by the following formula: INFγ inhibition=100−(AVG treatment/AVG DMSO control)*100.
For orientation: ELISA stands for enzyme-linked immunosorbent assay.

A further assay concerns IL-12 on macrophages. Description: Inhibition of IL-12 release from stimulated macrophages. The note with it: LPS and IFN-γ stimulated primary macrophages, ELISA. The protocol: Peritoneal exudate macrophages were isolated by peritoneal lavage with ice-cold sterile physiological saline 24 hours after intraperitoneal injection of BALB/c mice with 0.5 mL of sterile Zymosan A (1 mg/0.5 mL 0.9% saline). […] Murine primary macrophage are activated following incubation with LPS in the presence of sub-optimal doses of IFN-γ. Upon activation, macrophages participate actively in the onset of inflammation by releasing bioactive molecules that amplify the initial inflammatory response. […] Briefly, IL-12 levels in the supernatants from stimulated macrophages were determined with PharMingen's OptEIA™ ELISA set developed using an anti-mouse IL-12 antibody pair and mouse rIL-12 standard (PharMingen). Maxisorp™ F16 multiwell strips (Nunc, Roskilde, Denmark) were coated with anti-mouse IL-12 capture Ab (at recommended concentration) in 0.1 M NaHCO3, pH 9.5, 100 μL/well, overnight at 4° C. […] Plates were washed 3× with PBST and duplicate samples (100 μL/well) or standards (100 μL/well) in diluent buffer were incubated for 2 h. Plates were washed five times with PBST and incubated with biotinylated anti-mouse IL-12 and avidin-horseradish peroxidase (HRP) conjugate (at concentrations recommended by the manufacturer) for 1 h. […] Peritoneal exudate macrophages were isolated by peritoneal lavage with ice-cold sterile physiological saline 24 hours after intraperitoneal injection of BALB/c mice with 0.3 ml of sterile zymosan A (1 mg/0.5 mL 0.9% saline). […] All treatments were replicated six times. Cells were incubated for an additional 24 hours, and cell free culture supernatants from each well were collected for NO and cytokine determination. The remaining cells were stained with crystal violet to determine effect of the compound on cell survival.

A further assay concerns ConA 1° splenocytes. Description: Survival of ConA 1° splenocytes (cytotoxicity by MTS staining). The note with it: ConA-stimulated splenocytes.

Regarding `COc1cc2sc(-c3c(N4CCNCC4)n[nH]c3N)nc2cc1F` [4-(5-Fluoro-6-methoxybenzothiazole)-5-piperizin-1-yl-2H-pyrazol-3-ylamine], the IC50 (usually the point on the concentration scale where inhibition reaches its midpoint) is more than 25 µM in the assay on macrophages, 6.1 µM in assay [1], 23.4 µM with IL-12 on macrophages and 17.5 µM in the assay with ConA 1° splenocytes.

As to `COc1cc2sc(-c3c(NCCN(C)C)n[nH]c3N)nc2cc1F` [N^3-(2-Dimethylaminoethyl)-4-(5-fluoro-6-methoxybenzothiazole)-1H-pyrazole-3,5-diamine], the half-maximal inhibitory concentration (IC50) in the assay with macrophages was more than 25 µM; in assay [1], 11 µM; in the assay with IL-12 on macrophages, more than 25 µM; in the assay on ConA 1° splenocytes, more than 25 µM.
